Experimental data as given in ChEMBL document CHEMBL1148380, “Quantitative structure-activity relationships for gammadelta T cell activation by bisphosphonates” (J Med Chem, 2004).
pIC50: −log10 of the molar value.

Test: pIC50 value for stimulation of TNF-alpha release in gamma-delta T cells, using individual observed maximum TNF-alpha release
Type: functional, cell-based
Conditions: Homo sapiens, T-cell

Row | SMILES | pIC50
1 | CCCN(CCC)C(P(=O)(O)O)P(=O)(O)O [(DIPROPYLAMINO)METHYLENEDIPHOSPHONIC ACID] | 4.39
2 | CC(C)CCNC(P(=O)(O)O)P(=O)(O)O [(ISOPENTYLAMINO)METHYLENEDIPHOSPHONIC ACID] | 4.40
3 | CCCCCCCCCNC(P(=O)(O)O)P(=O)(O)O [(NONYLAMINO)METHYLENEDIPHOSPHONIC ACID] | 4.18
4 | CCCCCNC(P(=O)(O)O)P(=O)(O)O [(PENTYLAMINO)METHYLENEDIPHOSPHONIC ACID] | 5.11
5 | CCCNC(P(=O)(O)O)P(=O)(O)O [(PROPYLAMINO)METHYLENEDIPHOSPHONIC ACID] | 4.74
6 | NCCCC(O)(P(=O)(O)O)P(=O)(O)O [ALENDRONIC ACID] | 4.27
7 | CCCCCN(C)CCC(O)(P(=O)(O)O)P(=O)(O)O [IBANDRONIC ACID] | 4.50
8 | O=P(O)(O)C(O)(Cc1cnc2ccccn12)P(=O)(O)O [MINODRONIC ACID] | 5.39
9 | NCCCCCC(O)(P(=O)(O)O)P(=O)(O)O [NERIDRONIC ACID] | 3.71
10 | CN(C)CCC(O)(P(=O)(O)O)P(=O)(O)O [OLPADRONIC ACID] | 4.33
11 | NCCC(O)(P(=O)(O)O)P(=O)(O)O [PAMIDRONIC ACID] | 4.21
12 | O=P(O)(O)C(O)(Cc1cccnc1)P(=O)(O)O [RISEDRONIC ACID] | 5.16

Results, then the compound that gave them:

Row | pIC50 | SMILES
13 | 4.94 | O=P(O)(O)C(NC1CCCCCC1)P(=O)(O)O [INCADRONIC ACID]
14 | 4.95 | O=P(O)(O)C(N1CCCCCC1)P(=O)(O)O [N-(HEXAMETHYLENEIMINO)METHYLENEBISPHOSPHONIC ACID]
15 | 3.72 | O=P(O)(O)C(N1CCSCC1)P(=O)(O)O [THIOMORPHOLINOMETHYLENEDIPHOSPHONIC ACID]

Test: pIC50 value for stimulation of TNF-alpha release in gamma-delta T cells, using a constrained maximum TNF-alpha release of 2700 pg/mL
Type: functional, cell-based
Conditions: Homo sapiens, T-cell

Row | SMILES | pIC50
16 | O=P(O)(O)C(NCc1ccc(F)cc1)P(=O)(O)O | 4.20
17 | O=P(O)(O)C(Sc1ccccn1)P(=O)(O)O | 4.17
18 | O=[N+]([O-])c1cccc(CC(O)(P(=O)(O)O)P(=O)(O)O)c1 | 3.96
19 | Cc1cc(Br)cnc1NC(P(=O)(O)O)P(=O)(O)O | 4.14
20 | Cc1cccc(CC(O)(P(=O)(O)O)P(=O)(O)O)c1 | 2.05
21 | CC(C)(C)c1cccc(NC(P(=O)(O)O)P(=O)(O)O)c1 | 1.60
22 | O=P(O)(O)C(O)(Cn1ccnn1)P(=O)(O)O | 2.68
23 | O=P(O)(O)C(Cc1cccnc1)P(=O)(O)O | 4.98
24 | CCCN(CCC)C(P(=O)(O)O)P(=O)(O)O [(DIPROPYLAMINO)METHYLENEDIPHOSPHONIC ACID] | 4.08
25 | CC(C)CCNC(P(=O)(O)O)P(=O)(O)O [(ISOPENTYLAMINO)METHYLENEDIPHOSPHONIC ACID] | 4.33
26 | CCCCCCCCCNC(P(=O)(O)O)P(=O)(O)O [(NONYLAMINO)METHYLENEDIPHOSPHONIC ACID] | 3.77
27 | CCCCCNC(P(=O)(O)O)P(=O)(O)O [(PENTYLAMINO)METHYLENEDIPHOSPHONIC ACID] | 4.39
28 | CCCNC(P(=O)(O)O)P(=O)(O)O [(PROPYLAMINO)METHYLENEDIPHOSPHONIC ACID] | 4.46
29 | NCCCC(O)(P(=O)(O)O)P(=O)(O)O [ALENDRONIC ACID] | 4.28
30 | CCCCCN(C)CCC(O)(P(=O)(O)O)P(=O)(O)O [IBANDRONIC ACID] | 4.51
31 | O=P(O)(O)C(O)(Cc1cnc2ccccn12)P(=O)(O)O [MINODRONIC ACID] | 5.10
32 | NCCCCCC(O)(P(=O)(O)O)P(=O)(O)O [NERIDRONIC ACID] | 3.30
33 | CN(C)CCC(O)(P(=O)(O)O)P(=O)(O)O [OLPADRONIC ACID] | 3.95
34 | NCCC(O)(P(=O)(O)O)P(=O)(O)O [PAMIDRONIC ACID] | 3.03
35 | O=P(O)(O)C(O)(Cc1cccnc1)P(=O)(O)O [RISEDRONIC ACID] | 5.21

Results, then the compound that gave them:

Row | pIC50 | SMILES
36 | 3.40 | CN(C)CCCC(P(=O)(O)O)P(=O)(O)O
37 | 2.92 | CCC1CCCCN1C(P(=O)(O)O)P(=O)(O)O (configuration not stated)
38 | 4.63 | CC1CCN(C(P(=O)(O)O)P(=O)(O)O)CC1
39 | 2.78 | CC1CCCC(C)N1C(P(=O)(O)O)P(=O)(O)O (configuration not stated)
40 | 3.46 | CC1CCCN(C(P(=O)(O)O)P(=O)(O)O)C1 (configuration not stated)
41 | 2.56 | CC1CCCCN1C(P(=O)(O)O)P(=O)(O)O (configuration not stated)
42 | 3.99 | CCN(C1CCCCC1)C(P(=O)(O)O)P(=O)(O)O
43 | 4.83 | O=P(O)(O)C(NC1CCCCCC1)P(=O)(O)O [INCADRONIC ACID]
44 | 4.17 | O=P(O)(O)C(N1CCCCCCC1)P(=O)(O)O [N-(HEPTAMETHYLENEIMINO)METHYLENEBISPHOSPHONIC ACID]
45 | 4.89 | O=P(O)(O)C(N1CCCCCC1)P(=O)(O)O [N-(HEXAMETHYLENEIMINO)METHYLENEBISPHOSPHONIC ACID]
46 | 3.22 | O=P(O)(O)C(N1CCSCC1)P(=O)(O)O [THIOMORPHOLINOMETHYLENEDIPHOSPHONIC ACID]

Test: Inhibitory activity, for stimulation of TNF-alpha release in gamma-delta T cells, using a constrained maximum TNF-alpha release of 2700 pg/mL
Type: functional, cell-based
Conditions: Homo sapiens, T-cell

Row | SMILES | pIC50
47 | O=P(O)(O)C(NCc1ccc(F)cc1)P(=O)(O)O | 4.20
48 | O=P(O)(O)C(Sc1ccccn1)P(=O)(O)O | 4.17
49 | O=[N+]([O-])c1cccc(CC(O)(P(=O)(O)O)P(=O)(O)O)c1 | 3.96
50 | Cc1cc(Br)cnc1NC(P(=O)(O)O)P(=O)(O)O | 4.14
51 | Cc1cccc(CC(O)(P(=O)(O)O)P(=O)(O)O)c1 | 2.05
52 | CC(C)(C)c1cccc(NC(P(=O)(O)O)P(=O)(O)O)c1 | 1.60
53 | O=P(O)(O)C(O)(Cn1ccnn1)P(=O)(O)O | 2.68
54 | O=P(O)(O)C(Cc1cccnc1)P(=O)(O)O | 5.00
55 | CCCN(CCC)C(P(=O)(O)O)P(=O)(O)O [(DIPROPYLAMINO)METHYLENEDIPHOSPHONIC ACID] | 4.08
56 | CC(C)CCNC(P(=O)(O)O)P(=O)(O)O [(ISOPENTYLAMINO)METHYLENEDIPHOSPHONIC ACID] | 4.33
57 | CCCCCCCCCNC(P(=O)(O)O)P(=O)(O)O [(NONYLAMINO)METHYLENEDIPHOSPHONIC ACID] | 3.77
58 | CCCCCNC(P(=O)(O)O)P(=O)(O)O [(PENTYLAMINO)METHYLENEDIPHOSPHONIC ACID] | 4.39
59 | CCCNC(P(=O)(O)O)P(=O)(O)O [(PROPYLAMINO)METHYLENEDIPHOSPHONIC ACID] | 4.46
60 | NCCCC(O)(P(=O)(O)O)P(=O)(O)O [ALENDRONIC ACID] | 4.28
61 | CCCCCN(C)CCC(O)(P(=O)(O)O)P(=O)(O)O [IBANDRONIC ACID] | 4.51
62 | O=P(O)(O)C(O)(Cc1cnc2ccccn12)P(=O)(O)O [MINODRONIC ACID] | 5.10
63 | NCCCCCC(O)(P(=O)(O)O)P(=O)(O)O [NERIDRONIC ACID] | 3.30
64 | CN(C)CCC(O)(P(=O)(O)O)P(=O)(O)O [OLPADRONIC ACID] | 3.95
65 | NCCC(O)(P(=O)(O)O)P(=O)(O)O [PAMIDRONIC ACID] | 3.03
66 | O=P(O)(O)C(O)(Cc1cccnc1)P(=O)(O)O [RISEDRONIC ACID] | 5.21

Continued, values first:

Row | pIC50 | SMILES
67 | 3.40 | CN(C)CCCC(P(=O)(O)O)P(=O)(O)O
68 | 2.92 | CCC1CCCCN1C(P(=O)(O)O)P(=O)(O)O (configuration not stated)
69 | 4.62 | CC1CCN(C(P(=O)(O)O)P(=O)(O)O)CC1
70 | 2.78 | CC1CCCC(C)N1C(P(=O)(O)O)P(=O)(O)O (configuration not stated)
71 | 3.46 | CC1CCCN(C(P(=O)(O)O)P(=O)(O)O)C1 (configuration not stated)
72 | 2.56 | CC1CCCCN1C(P(=O)(O)O)P(=O)(O)O (configuration not stated)
73 | 3.99 | CCN(C1CCCCC1)C(P(=O)(O)O)P(=O)(O)O
74 | 4.82 | O=P(O)(O)C(NC1CCCCCC1)P(=O)(O)O [INCADRONIC ACID]
75 | 4.17 | O=P(O)(O)C(N1CCCCCCC1)P(=O)(O)O [N-(HEPTAMETHYLENEIMINO)METHYLENEBISPHOSPHONIC ACID]
76 | 4.89 | O=P(O)(O)C(N1CCCCCC1)P(=O)(O)O [N-(HEXAMETHYLENEIMINO)METHYLENEBISPHOSPHONIC ACID]
77 | 3.22 | O=P(O)(O)C(N1CCSCC1)P(=O)(O)O [THIOMORPHOLINOMETHYLENEDIPHOSPHONIC ACID]

Test: Inhibitory activity, for stimulation of TNF-alpha release in gamma-delta T cells, using individual observed maximum TNF-alpha release
Type: functional, cell-based
Conditions: Homo sapiens, T-cell

Row | SMILES | pIC50
78 | CCCN(CCC)C(P(=O)(O)O)P(=O)(O)O [(DIPROPYLAMINO)METHYLENEDIPHOSPHONIC ACID] | 4.39
79 | CC(C)CCNC(P(=O)(O)O)P(=O)(O)O [(ISOPENTYLAMINO)METHYLENEDIPHOSPHONIC ACID] | 4.40
80 | CCCCCCCCCNC(P(=O)(O)O)P(=O)(O)O [(NONYLAMINO)METHYLENEDIPHOSPHONIC ACID] | 4.18
81 | CCCCCNC(P(=O)(O)O)P(=O)(O)O [(PENTYLAMINO)METHYLENEDIPHOSPHONIC ACID] | 5.11
82 | CCCNC(P(=O)(O)O)P(=O)(O)O [(PROPYLAMINO)METHYLENEDIPHOSPHONIC ACID] | 4.74
83 | NCCCC(O)(P(=O)(O)O)P(=O)(O)O [ALENDRONIC ACID] | 4.28
84 | CCCCCN(C)CCC(O)(P(=O)(O)O)P(=O)(O)O [IBANDRONIC ACID] | 4.51
85 | O=P(O)(O)C(O)(Cc1cnc2ccccn12)P(=O)(O)O [MINODRONIC ACID] | 5.39
86 | NCCCCCC(O)(P(=O)(O)O)P(=O)(O)O [NERIDRONIC ACID] | 5.71
87 | CN(C)CCC(O)(P(=O)(O)O)P(=O)(O)O [OLPADRONIC ACID] | 4.34
88 | NCCC(O)(P(=O)(O)O)P(=O)(O)O [PAMIDRONIC ACID] | 4.21
89 | O=P(O)(O)C(O)(Cc1cccnc1)P(=O)(O)O [RISEDRONIC ACID] | 5.16

Second part, the compound after the results:

Row | pIC50 | SMILES
90 | 4.96 | O=P(O)(O)C(NC1CCCCCC1)P(=O)(O)O [INCADRONIC ACID]
91 | 4.96 | O=P(O)(O)C(N1CCCCCC1)P(=O)(O)O [N-(HEXAMETHYLENEIMINO)METHYLENEBISPHOSPHONIC ACID]
92 | 3.72 | O=P(O)(O)C(N1CCSCC1)P(=O)(O)O [THIOMORPHOLINOMETHYLENEDIPHOSPHONIC ACID]
